In brackets after ≈: the same amount, converted by molar mass.
Tests used:
Assay type in all cases: functional
Streptococcus pneumoniae [1] = assay: Compound was evaluated for minimum inhibitory concentration against Streptococcus pneumoniae 9757 strain
[2] = system: Staphylococcus epidermidis; assay: Compound was evaluated for minimum inhibitory concentration against Staphylococcus epidermidis 9759 strain
[3] = system: Staphylococcus epidermidis; assay: Compound was evaluated for minimum inhibitory concentration against Staphylococcus epidermidis 975 strain
Staphylococcus aureus [4] = assay: Compound was evaluated for minimum inhibitory concentration against Staphylococcus aureus 975 strain
Staphylococcus aureus [5] = assay: Compound was evaluated for minimum inhibitory concentration against Staphylococcus aureus 966 strain
Streptococcus pyogenes [6] = assay: Compound was evaluated for minimum inhibitory concentration against Streptococcus pyogenes 114 strain
Streptococcus pneumoniae [7] = assay: Compound was evaluated for minimum inhibitory concentration against Streptococcus pneumoniae 9798 strain
Staphylococcus aureus [8] = assay: Compound was evaluated for minimum inhibitory concentration against Staphylococcus aureus 9776 strain
Enterococcus faecalis [9] = assay: Compound was evaluated for minimum inhibitory concentration against Enterococcus faecalis 68
Streptococcus pneumoniae [10] = assay: Compound was evaluated for minimum inhibitory concentration against Streptococcus pneumoniae 9753 strain
Staphylococcus aureus [11] = assay: Compound was evaluated for minimum inhibitory concentration against Staphylococcus aureus 9721 strain
Enterococcus faecalis [12] = assay: Compound was evaluated for minimum inhibitory concentration against Enterococcus faecalis 50
Streptococcus sp. [13] = assay: Compound was evaluated for minimum inhibitory concentration against Streptococcus A 44 strain
Streptococcus sp. [14] = assay: Compound was evaluated for minimum inhibitory concentration against Streptococcus A 29 strain
Staphylococcus aureus [15] = assay: Compound was evaluated for minimum inhibitory concentration against Staphylococcus aureus 9616 strain
[16] = system: Staphylococcus epidermidis; assay: Compound was evaluated for minimum inhibitory concentration against Staphylococcus epidermidis 9753 strain
Streptococcus pyogenes [17] = assay: Compound was evaluated for minimum inhibitory concentration against Streptococcus pyogenes 102 strain
Enterococcus faecalis [18] = assay: Compound was evaluated for minimum inhibitory concentration against Enterococcus faecalis 50 strain

Row | SMILES | MIC (Streptococcus pneumoniae [1]) [µg/mL] | MIC [2] [µg/mL] | MIC [3] [µg/mL] | MIC (Staphylococcus aureus [4]) [µg/mL] | MIC (Staphylococcus aureus [5]) [µg/mL] | MIC (Streptococcus pyogenes [6]) [µg/mL] | MIC (Streptococcus pneumoniae [7]) [µg/mL] | MIC (Staphylococcus aureus [8]) [µg/mL] | MIC (Enterococcus faecalis [9]) [µg/mL] | MIC (Streptococcus pneumoniae [10]) [µg/mL] | MIC (Staphylococcus aureus [11]) [µg/mL] | MIC (Enterococcus faecalis [12]) [µg/mL] | MIC (Streptococcus sp. [13]) [µg/mL] | MIC (Streptococcus sp. [14]) [µg/mL] | MIC (Staphylococcus aureus [15]) [µg/mL] | MIC [16] [µg/mL] | MIC (Streptococcus pyogenes [17]) [µg/mL] | MIC (Enterococcus faecalis [18]) [µg/mL]
1 | CC(=O)NC[C@H]1CN(c2ccc(N3CCN(C(c4ccccc4)c4ccccc4)CC3)c(F)c2)C(=O)O1 | 4 (≈ 7.96 µM) | 16 (≈ 31.8 µM) | 8 (≈ 15.9 µM) | 4 (≈ 7.96 µM) | 8 (≈ 15.9 µM) | 16 (≈ 31.8 µM) | 8 (≈ 15.9 µM) | 8 (≈ 15.9 µM) | 32 (≈ 63.7 µM) | 4 (≈ 7.96 µM) | 16 (≈ 31.8 µM) | 8 (≈ 15.9 µM) | 32 (≈ 63.7 µM) | 4 (≈ 7.96 µM) | 8 (≈ 15.9 µM) | 4 (≈ 7.96 µM) | 32 (≈ 63.7 µM) | 
2 | COc1ccc(N2CCN(c3ccc(N4C[C@H](CNC(C)=O)OC4=O)cc3F)CC2)cc1 | 1 (≈ 2.26 µM) | 1 (≈ 2.26 µM) | 1 (≈ 2.26 µM) | 1 (≈ 2.26 µM) | 2 (≈ 4.52 µM) | 2 (≈ 4.52 µM) | 1 (≈ 2.26 µM) | 1 (≈ 2.26 µM) |  | 1 (≈ 2.26 µM) | 1 (≈ 2.26 µM) | 1 (≈ 2.26 µM) | 1 (≈ 2.26 µM) | 1 (≈ 2.26 µM) | 1 (≈ 2.26 µM) | 1 (≈ 2.26 µM) | 1 (≈ 2.26 µM) | 
3 | CC(=O)NC[C@H]1CN(c2ccc(N3CCN(c4ccccc4)CC3)c(F)c2)C(=O)O1 | 0.25 (≈ 0.606 µM) | 1 (≈ 2.42 µM) | 1 (≈ 2.42 µM) | 1 (≈ 2.42 µM) | 2 (≈ 4.85 µM) | 1 (≈ 2.42 µM) | 1 (≈ 2.42 µM) | 1 (≈ 2.42 µM) | 2 (≈ 4.85 µM) | 0.5 (≈ 1.21 µM) | 1 (≈ 2.42 µM) | 1 (≈ 2.42 µM) | 2 (≈ 4.85 µM) | 0.5 (≈ 1.21 µM) | 1 (≈ 2.42 µM) | 0.5 (≈ 1.21 µM) | 1 (≈ 2.42 µM) | 
4 | CC(=O)NC[C@H]1CN(c2ccc(N3CCN(c4ccc(F)cc4)CC3)c(F)c2)C(=O)O1 | 1 (≈ 2.32 µM) | 1 (≈ 2.32 µM) | 1 (≈ 2.32 µM) | 0.5 (≈ 1.16 µM) | 1 (≈ 2.32 µM) | 2 (≈ 4.65 µM) | 1 (≈ 2.32 µM) | 1 (≈ 2.32 µM) | 4 (≈ 9.29 µM) | 1 (≈ 2.32 µM) | 1 (≈ 2.32 µM) | 1 (≈ 2.32 µM) | 1 (≈ 2.32 µM) | 1 (≈ 2.32 µM) | 2 (≈ 4.65 µM) | 0.5 (≈ 1.16 µM) | 1 (≈ 2.32 µM) | 
5 | CC(=O)NC[C@H]1CN(c2ccc(N3CCOCC3)c(F)c2)C(=O)O1 [LINEZOLID] |  | 0.5 (≈ 1.48 µM) | 0.5 (≈ 1.48 µM) | 0.25 (≈ 0.741 µM) | 0.5 (≈ 1.48 µM) | 0.5 (≈ 1.48 µM) |  | 0.5 (≈ 1.48 µM) |  |  | 0.5 (≈ 1.48 µM) |  | 0.5 (≈ 1.48 µM) | 0.25 (≈ 0.741 µM) | 1 (≈ 2.96 µM) | 0.25 (≈ 0.741 µM) | 0.5 (≈ 1.48 µM) | 0.5 (≈ 1.48 µM)

From ChEMBL document CHEMBL1135237, “Synthesis and antibacterial activity of linezolid analogues” (2002)
